Experimental data from ChEMBL document CHEMBL4420066, “Aryl amine substituted quinoxaline used as anticancer drugs” (2017).
Active and inactive are the calls of the source.

What was measured:
Mus musculus = experiment: Activation of PP2A activity in tumor of human PLC5 cells xenografted in mouse at 10 mg/kg dosed for 4 weeks; type: functional, organism-based
Homo sapiens [1] = organism: Homo sapiens; experiment: Cytotoxicity against human PLC5 cells assessed as reduction in cell viability at 0.5 to 4 uM incubated for 48 hrs by MTT assay; type: functional, cell-based
Hep 3B2 [2] = experiment: Induction of apoptosis in human Hep3B cells assessed as accumulation at subG1 phase at 0.5 to 4 uM by flow cytometry; type: functional, cell-based
SK-HEP1 [3] = experiment: Induction of apoptosis in human SKHEP1 cells assessed as caspase-9 activation at 0.5 to 4 uM incubated for 48 hrs by Western blotting analysis; type: functional, cell-based
Homo sapiens [4] = organism: Homo sapiens; experiment: Activation of PP2A in human HA22T cells assessed as minimal concentration causing increase in protein phosphatase activity incubated for 24 hrs using phosphopeptide substrate incubated for 10 mins by malachite green-phosphate complex assay; type: cell-based
SK-HEP1 [5] = experiment: Induction of necrosis in human SKHEP1 cells >= 2 uM incubated for 48 hrs by annexin-V-FITC staining based by flow cytometry relative to control; type: functional
[6] = Inhibition of CIP2A protein expression in human PLC5 cells assessed as CIP2A protein expression ratio level at 1 uM by Western blotting analysis (Rvb =1); type: functional
Hep 3B2 [7] = experiment: Inhibition of CIP2A protein expression in human Hep3B cells by Western blotting analysis; type: functional, cell-based
Homo sapiens [8] = organism: Homo sapiens; experiment: Inhibition of CIP2A mRNA expression in human PLC5 cells at 1 to 4 uM by RT-PCR analysis; type: functional, cell-based
[9] = Inhibition of CIP2A protein expression in human PLC5 cells assessed as CIP2A protein expression ratio level at 4 uM by Western blotting analysis (Rvb =1); type: functional
Homo sapiens [10] = organism: Homo sapiens; experiment: Activation of PP2A in human Hep3B cells assessed as minimal concentration causing increase in protein phosphatase activity incubated for 24 hrs using phosphopeptide substrate incubated for 10 mins by malachite green-phosphate complex assay; type: cell-based
Homo sapiens [11] = organism: Homo sapiens; experiment: Inhibition of PP2A-C protein expression in human PLC5 cells at 1 uM incubated for 24 hrs by Western blotting analysis; type: functional, cell-based
Homo sapiens [12] = organism: Homo sapiens; experiment: Inhibition of human CIP2A gene promoter -110/-1 mutant construct activity in human PLC5 cells by luciferase reporter gene assay; type: cell-based
Homo sapiens [13] = organism: Homo sapiens; experiment: Inhibition of human CIP2A gene promoter in human PLC5 cells assessed as inhibition of ELK1 protein expression at 2 uM by Western blotting analysis; type: cell-based
Homo sapiens [14] = organism: Homo sapiens; experiment: Inhibition of PP2A-B5 protein expression in human PLC5 cells at 1 uM incubated for 24 hrs by Western blotting analysis; type: functional, cell-based
HA22T cell line [15] = experiment: Induction of apoptosis in human HA22T cells >= 2 uM incubated for 48 hrs by annexin-V-FITC staining based by flow cytometry relative to control; type: functional
HA22T cell line [16] = experiment: Induction of apoptosis in human HA22T cells assessed as induction of DNA fragmentation at 1 uM incubated for 24 hrs by ELISA; type: functional, cell-based
HA22T cell line [17] = experiment: Inhibition of CIP2A protein expression in human HA22T cells assessed as CIP2A protein expression ratio level at 4 uM by Western blotting analysis (Rvb =1); type: functional
Homo sapiens [18] = organism: Homo sapiens; experiment: Induction of apoptosis in human PLC5 cells assessed as caspase-9 activation at 0.5 to 4 uM incubated for 48 hrs by Western blotting analysis; type: functional, cell-based
Hep 3B2 [19] = experiment: Induction of apoptosis in human Hep3B cells assessed as induction of DNA fragmentation at 1 uM incubated for 24 hrs by ELISA; type: functional, cell-based
Homo sapiens [20] = organism: Homo sapiens; experiment: Activation of PP2A in human PLC5 cells assessed as minimal concentration causing increase in protein phosphatase activity incubated for 24 hrs using phosphopeptide substrate incubated for 10 mins by malachite green-phosphate complex assay; type: cell-based
Homo sapiens [21] = organism: Homo sapiens; experiment: Induction of apoptosis in human PLC5 cells assessed as induction of DNA fragmentation at 1 uM incubated for 24 hrs by ELISA; type: functional, cell-based
[22] = target: T1, Serine/threonine-protein kinase AKT (Homo sapiens) (UniProt P31751+Q9Y243+P31749); experiment: Inhibition of Akt phosphorylation at S473 residue in human PLC5 cells at 2 uM incubated for 24 hrs in presence of 100 nM PP2A inhibitor okadaic acid by Western blotting analysis; type: cell-based
T1 sequence (P31749 whole entry, looked up): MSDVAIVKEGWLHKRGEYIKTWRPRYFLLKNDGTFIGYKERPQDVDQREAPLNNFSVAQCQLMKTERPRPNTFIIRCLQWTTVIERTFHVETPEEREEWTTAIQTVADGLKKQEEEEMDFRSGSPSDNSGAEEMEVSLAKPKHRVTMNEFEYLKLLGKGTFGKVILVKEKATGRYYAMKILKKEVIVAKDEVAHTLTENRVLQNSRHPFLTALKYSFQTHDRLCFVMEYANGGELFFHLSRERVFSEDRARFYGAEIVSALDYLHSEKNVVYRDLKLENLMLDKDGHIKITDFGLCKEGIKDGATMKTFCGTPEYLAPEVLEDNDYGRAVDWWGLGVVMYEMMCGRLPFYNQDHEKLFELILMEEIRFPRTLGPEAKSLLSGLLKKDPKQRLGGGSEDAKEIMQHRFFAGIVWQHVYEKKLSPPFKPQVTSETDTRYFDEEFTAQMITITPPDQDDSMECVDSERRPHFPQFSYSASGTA
T1 sequence (P31751 whole entry, looked up): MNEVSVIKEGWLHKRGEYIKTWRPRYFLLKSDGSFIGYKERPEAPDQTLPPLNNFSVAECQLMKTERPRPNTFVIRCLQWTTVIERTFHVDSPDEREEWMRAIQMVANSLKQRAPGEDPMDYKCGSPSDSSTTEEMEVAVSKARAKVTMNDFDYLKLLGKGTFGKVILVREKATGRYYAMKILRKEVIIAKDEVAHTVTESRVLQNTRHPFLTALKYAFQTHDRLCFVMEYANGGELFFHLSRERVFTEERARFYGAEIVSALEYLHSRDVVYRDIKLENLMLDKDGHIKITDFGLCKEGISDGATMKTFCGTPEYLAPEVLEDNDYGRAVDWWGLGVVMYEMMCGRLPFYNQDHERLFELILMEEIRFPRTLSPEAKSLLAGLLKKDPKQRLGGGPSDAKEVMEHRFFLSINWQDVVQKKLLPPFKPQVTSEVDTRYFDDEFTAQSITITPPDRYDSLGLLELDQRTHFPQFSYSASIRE
T1 sequence (Q9Y243 whole entry, looked up): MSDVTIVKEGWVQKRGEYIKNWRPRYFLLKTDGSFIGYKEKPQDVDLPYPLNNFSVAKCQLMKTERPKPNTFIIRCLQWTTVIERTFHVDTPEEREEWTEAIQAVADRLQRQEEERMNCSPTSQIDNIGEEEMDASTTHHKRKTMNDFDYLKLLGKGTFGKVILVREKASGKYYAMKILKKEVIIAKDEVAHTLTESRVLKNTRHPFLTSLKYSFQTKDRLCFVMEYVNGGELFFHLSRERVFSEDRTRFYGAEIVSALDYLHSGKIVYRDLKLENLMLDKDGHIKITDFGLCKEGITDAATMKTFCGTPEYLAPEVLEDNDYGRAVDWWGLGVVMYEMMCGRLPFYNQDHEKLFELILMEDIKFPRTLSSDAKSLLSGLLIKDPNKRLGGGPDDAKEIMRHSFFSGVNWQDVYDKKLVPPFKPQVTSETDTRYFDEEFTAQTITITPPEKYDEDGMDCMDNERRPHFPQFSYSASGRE

Hep 3B2 [23] = experiment: Induction of apoptosis in human Hep3B cells >= 2 uM incubated for 48 hrs by annexin-V-FITC staining based by flow cytometry relative to control; type: functional
Homo sapiens [24] = organism: Homo sapiens; experiment: Induction of apoptosis in human PLC5 cells assessed as induction of PARP cleavage at 2 uM in presence of caspase inhibitor Z-VAD-fmk incubated for 48 hrs by Western blotting analysis; type: functional, cell-based
[25] = target: T1, Serine/threonine-protein kinase AKT (Homo sapiens); experiment: Inhibition of Akt phosphorylation at S473 residue in human HA22T cells at 1 uM by Western blotting analysis; type: cell-based; details: TDE = time-dependent effect
SK-HEP1 [26] = experiment: Inhibition of PP2A-A protein expression in human SKHEP1 cells at 1 uM incubated for 24 hrs by Western blotting analysis; type: functional, cell-based
SK-HEP1 [27] = experiment: Inhibition of CIP2A protein expression in human SKHEP1 cells assessed as CIP2A protein expression ratio level at 4 uM by Western blotting analysis (; type: functional
SK-HEP1 [28] = experiment: Inhibition of PP2A-C protein expression in human SKHEP1 cells at 1 uM incubated for 24 hrs by Western blotting analysis; type: functional, cell-based
Homo sapiens [29] = organism: Homo sapiens; experiment: Induction of apoptosis in human PLC5 cells at 2 uM in presence of caspase inhibitor Z-VAD-fmk incubated for 48 hrs by annexin-V-FITC staining based by flow cytometry; type: functional, cell-based
[30] = target: T1, Serine/threonine-protein kinase AKT (Homo sapiens); experiment: Inhibition of Akt phosphorylation at S473 residue in human Hep3B cells by Western blotting analysis; type: cell-based
HA22T cell line [31] = experiment: Inhibition of CIP2A protein expression in human HA22T cells assessed as CIP2A protein expression ratio level at 0.5 uM by Western blotting analysis (Rvb =1); type: functional
Homo sapiens [32] = organism: Homo sapiens; experiment: Activation of PP2A in human SKHEP1 cells assessed as increase in protein phosphatase activity at 1 uM incubated for 24 hrs using phosphopeptide substrate incubated for 10 mins by malachite green-phosphate complex assay; type: cell-based
HA22T cell line [33] = experiment: Inhibition of PP2A-C protein expression in human HA22T cells at 1 uM incubated for 24 hrs by Western blotting analysis; type: functional, cell-based
Homo sapiens [34] = organism: Homo sapiens; experiment: Activation of PP2A in human SKHEP1 cells assessed as minimal concentration causing increase in protein phosphatase activity incubated for 24 hrs using phosphopeptide substrate incubated for 10 mins by malachite green-phosphate complex assay; type: cell-based
Homo sapiens [35] = organism: Homo sapiens; experiment: Induction of apoptosis in human PLC5 cells at 2 uM incubated for 24 hrs in presence of 100 nM PP2A inhibitor okadaic acid by annexin-V-FITC staining based by flow cytometry; type: functional, cell-based
HA22T cell line [36] = experiment: Induction of apoptosis in human HA22T cells assessed as induction of PARP cleavage at 0.5 to 4 uM incubated for 48 hrs by Western blotting analysis; type: functional, cell-based
SK-HEP1 [37] = experiment: Inhibition of PP2A-B5 protein expression in human SKHEP1 cells at 1 uM incubated for 24 hrs by Western blotting analysis; type: functional, cell-based
[38] = target: T1, Serine/threonine-protein kinase AKT (Homo sapiens); experiment: Inhibition of Akt phosphorylation at S473 residue in human PLC5 cells by Western blotting analysis; type: cell-based

C#Cc1cccc(Nc2nc3ccccc3nc2Nc2cccc(C#C)c2)c1
0.1: Ratio (SK-HEP1 [27])
0.28: Ratio [6]
100 to 200 nM: MEC (Homo sapiens [4]) | MEC (Homo sapiens [10]) | MEC (Homo sapiens [20]) | MEC (Homo sapiens [34])
50%: Activity (SK-HEP1 [5]) | Activity (HA22T cell line [15]) | Activity (Hep 3B2 [23])
0.01: Ratio [9] | Ratio (HA22T cell line [17])
active: Activity (Mus musculus) | Activity (Homo sapiens [1]) | Activity (Hep 3B2 [2]) | Activity (SK-HEP1 [3]) Dose-dependent effect | inhibition (Hep 3B2 [7]) Dose-dependent effect | inhibition (Homo sapiens [8]) | inhibition (Homo sapiens [13]) | Activity (HA22T cell line [16]) | Activity (Homo sapiens [18]) Dose-dependent effect | Activity (Hep 3B2 [19]) | Activity (Homo sapiens [21]) | inhibition [25] Tde | inhibition [30] Dose-dependent effect | Activity (Homo sapiens [32]) | Activity (HA22T cell line [36]) Dose-dependent effect | inhibition [38] Dose-dependent effect
inactive: inhibition (Homo sapiens [11]) | inhibition (Homo sapiens [12]) | inhibition (Homo sapiens [14]) | inhibition [22] | Activity (Homo sapiens [24]) | inhibition (SK-HEP1 [26]) | inhibition (SK-HEP1 [28]) | Activity (Homo sapiens [29]) | inhibition (HA22T cell line [33]) | Activity (Homo sapiens [35]) | inhibition (SK-HEP1 [37])
0.99: Ratio (HA22T cell line [31])
